ChEMBL document CHEMBL3758093, “Sulfonamide inhibition studies of the β-carbonic anhydrase from the pathogenic bacterium Vibrio cholerae” (Bioorg Med Chem, 2016)

Biological target: Carbonic anhydrase 1 (Homo sapiens, UniProt P00915)
Sequence (P00915 whole entry): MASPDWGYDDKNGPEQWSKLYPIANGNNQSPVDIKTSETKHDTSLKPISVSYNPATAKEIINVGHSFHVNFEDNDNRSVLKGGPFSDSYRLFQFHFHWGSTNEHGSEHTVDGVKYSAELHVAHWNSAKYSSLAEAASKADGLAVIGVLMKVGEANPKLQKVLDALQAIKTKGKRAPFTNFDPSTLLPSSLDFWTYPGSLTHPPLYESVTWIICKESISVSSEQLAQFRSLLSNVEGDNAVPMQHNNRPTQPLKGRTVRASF

## NS(=O)(=O)c1cccc(S(N)(=O)=O)c1
  Ki: 28 µM
